The source of these data is patent publication US10128078B2, “Protective agent for electron microscopic observation of biological sample in water-containing state, kit for electron microscopic observation, methods for observation, diagnosis, evaluation, and quantification by electron microscope, and sample stage” (JAPAN SCIENCE AND TECHNOLOGY AGENCY, priority 2014, dated 2018).

In series [1] the test system is metastatic human melanoma cell line. The series can be described thus: SEM observation of metastatic human melanoma cell line inoculated on a cell sheet of normal human skin cell after adding an anti-cancer drug. Particulars: 60 minutes after sorafenib was added; cell sheet of human skin-derived fibroblast cell; SEM image. The class given is cell-based. The protocol:
(§1) A protective agent for electron microscopic observation and a surfactant-containing solution were prepared in the same manner as in Example 1.
A cell sheet obtained by culturing a normal human skin cell in a plate shape was inoculated with a metastatic human melanoma cell line and treated with the protective agent for electron microscopic observation and the surfactant-containing solution in 60 minutes after sorafenib of a kind of anti-cancer drug was added the cell sheet. Thereafter, the metastatic human melanoma cell line covered with the surfactant-containing solution was introduced into the sample chamber of the SEM, irradiated with an electron beam to polymerize the surfactant-containing solution and thus to form a thin film, and subjected to the SEM observation.
FIG. 17(a) is an image of the metastatic human melanoma cell line which was inoculated onto a cell sheet of the human skin-derived fibroblast cell, to which sorafenib was added, and which was observed and taken at a magnification of 1000-fold by a SEM. In addition, FIG. 17(b) is an image of FIG. 17(a) which was observed and taken at a magnification of 5000-fold by a SEM.

In another series the test system is artificial human skin. Kind of series: SEM observation of three-dimensionally cultured artificial human skin after adding a drug (side effect evaluation). The class given is cell-based. Conditions: 60 minutes after gefitinib dissolved in DMSO was added; SEM 2,500-fold; DMSO control kept normal morphology. The protocol: as §1
The artificial human skin obtained by sterically three-dimensionally culturing a normal human skin cell was treated with the protective agent for electron microscopic observation and the surfactant-containing solution in 60 minutes after gefitinib was added the artificial human skin. Thereafter, the artificial human skin covered with the surfactant-containing solution was introduced into the sample chamber of the SEM, irradiated with an electron beam to polymerize the surfactant-containing solution and thus to form a thin film, and subjected to the SEM observation (Example 12).
FIGS. 18A and 18B are photographs of the three-dimensionally cultured artificial human skin. FIG. 18A is a photograph which illustrates the artificial human skin being cultured and the culture vessel. In addition, FIG. 18B is a photograph of the HE-stained pathological section of the artificial human skin of FIG. 18A. FIG. 19(a) is an image of the artificial human skin which was observed and taken at a magnification of 2,500-fold by a SEM after gefitinib dissolved in dimethyl sulfoxide (DMSO) was added the artificial human skin. […]

In the case of `CNC(=O)c1cc(Oc2ccc(NC(=O)Nc3ccc(Cl)c(C(F)(F)F)c3)cc2)ccn1` [sorafenib], the “extension of a microfiber and invasion of the melanoma cell line into the normal skin cell” value in series [1] was “not able to extend a microfiber so that the invasion thereof is suppressed”.

For `COc1cc2ncnc(Nc3ccc(F)c(Cl)c3)c2cc1OCCCN1CCOCC1` [gefitinib], the “surface change of a skin cell (side effect)” value in the series on artificial human skin is reported as “peeled off in a scale shape”.
